Reference: PubChem BioAssay (NCI)
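In this assay, cells in 96-well plates receive the compound at five concentrations for 48 hours. Endpoints are linearly interpolated between the surrounding concentrations. TGI is the concentration that stops growth completely.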 Where a SMILES comes first, the peptide text is derived from it. [ ]: non-standard residue; d: D form. The star is where a group is joined. ξ: configuration not given here. Propanoyl(3-(4-MeO-Ph)) = COc1ccc(CCC(=O)*)cc1; Thr(3ξ) = CC(O)[C@H](N)C(=O)O; dNMeL = CN[C@H](CC(C)C)C(=O)O; Boc = CC(C)(C)OC(=O)*; OBn = c1ccc(CO*)cc1; ξLac = CC(O)C(=O)O

How the values were obtained:
Experiment in all cases: growth of human tumour cells (NCI), 48 h
HS 578T breast = test system: HS 578T breast
NCI-H23 lung = test system: NCI-H23 lung
SK-MEL-2 melanoma = test system: SK-MEL-2 melanoma
SNB-75 CNS = test system: SNB-75 CNS
SK-OV-3 ovarian = test system: SK-OV-3 ovarian

Structure (SMILES) | TGI (HS 578T breast) [µM] | TGI (NCI-H23 lung) [µM] | TGI (SK-MEL-2 melanoma) [µM] | TGI (SNB-75 CNS) [µM] | TGI (SK-OV-3 ovarian) [µM]
CCOC(=O)C1(C(=O)OCC)CC(=O)[C@@]2(C1)OCC[C@H]1OC(=O)C[C@H]12 | > 100 | > 100 | > 100 | > 100 | 
O=c1[nH]c(Nc2cccc(Br)c2)nc2nc[nH]c12 | > 100 | > 100 | > 100 | > 100 | > 100
CC(=N/NC(=S)N1CCCCC1)/C(C)=N\NC(=S)N1CCCCC1 | 5.76 | 4.82 | 4.65 | 3.14 | 3.32
CN(C)CCNC1=CC(=O)c2c(O)ccc(O)c2C1=O | 53.6 | 18.7 | 25.3 | 31.9 | 83.1
Cc1ccc([N+](=O)[O-])cc1S(=O)(=O)Nc1ccc(C2=NNC(c3cccs3)C2)cc1 (configuration not stated) | > 100 | > 100 | > 100 | > 100 | 89.4
CC1(C)N=C(/C=N/O)C(C)(C)N1O | > 100 | > 100 | > 100 | > 100 | > 100
CC1C(c2ccc3c(c2)OCO3)c2cc3c(cc2OC1N1CCCCC1)OCO3 (configuration not stated) | > 100 | > 100 | > 100 |  | 
CCOCC(NC(=O)C(CC(C)C)NC(=O)OC(C)(C)C)C(N)=O (stereo not drawn) (Boc-Leu-Ser(Et)-NH2; configuration not given here) | > 100 | > 100 | > 100 | > 100 | > 100
CSc1nc(O)c(/C=C2\C=Nc3ccccc32)[nH]1 | > 100 | > 100 | > 100 | > 100 | > 100
CSc1ccc(/C=C2\N=C(c3ccccc3)N(c3nc4c(Cl)cc(Cl)cc4s3)C2=O)cc1 | 64.6 |  | 41.4 | 62 | 84.9
COc1ccc(C2SCC(=O)N2NC(=O)C(C)Oc2ccccc2Cl)cc1 (configuration not stated) | > 100 | > 100 | 50 | > 100 | 
COc1ccc(CCC(=O)OC(C)[C@H](NC(=O)[C@@H](CC(C)C)N(C)C(=O)[C@@H]2CCCN2C(=O)C(C)O)C(=O)OCc2ccccc2)cc1 (some centres not stated) (H-[ξLac]P[dNMeL][Thr(3ξ)](Propanoyl(3-(4-MeO-Ph)))-OBn) | 27.8 | > 100 | 36.9 | 45.7 | > 100
Cc1ccc(/C=N/Nc2nncc3ccccc23)s1 | > 100 | > 100 | > 100 | > 75.9 | > 100
C=Cc1cc2c(cc1O)CC[C@@H]1[C@@H]2CC[C@]2(C)[C@@H](O)CC[C@@H]12 |  | 14.3 | 21.1 | 24.4 | 28.3
CC(=O)NNC(=S)/N=C/c1c(O)cc(C)oc1=O |  | > 100 | > 100 | > 100 | > 100
Cc1cc(O)c(/C=N/c2nc(-c3cccc([N+](=O)[O-])c3)cs2)c(=O)o1 |  | > 100 | > 100 | > 100 | > 100
COc1ccccc1N=N/C(=N/NC(=O)c1ccc(C)cc1)c1ccc(N(CCC#N)CCC#N)cc1OC | > 100 | > 100 | 39.5 |  | > 100
CC(C)NC(=O)OCc1c(COC(=O)NC(C)C)c(-c2ccc[n+](COC(=O)C3CC3)c2)n2c1CCC2 | > 100 | > 100 | > 100 | > 100 | > 100
CC(=O)c1c(-c2ccccc2)c(-c2ccc(OCCN(C)C)cc2)n2ccccc12 | 42.2 | 36.7 | 33.3 | 27.9 | 38.2
O=C1CC(c2ccc[nH]2)=NN1c1ccccc1 |  | > 100 | > 100 | > 100 | > 100
COc1ccc(C(C#N)NCCCCCCNC(C#N)c2ccc(OC)cc2)cc1 (configuration not stated) | > 100 | > 100 | > 100 | > 100 | > 100
CC1=C(C(=O)Nc2ccccc2)C(c2ccc(C)o2)C(C#N)=C(SCc2ccccc2)N1 (configuration not stated) | > 100 | > 100 | > 100 | > 100 | > 100
O=c1c(O)c(-c2cc(O)c(O)cc2O)oc2cc(O)c(C3OC(CO)C(O)C(O)C3O)c(O)c12 (configuration not stated) | > 100 |  | > 100 | > 100 | > 100

Structure (SMILES) | TGI (HS 578T breast) [µM] | TGI (NCI-H23 lung) [µM] | TGI (SK-MEL-2 melanoma) [µM] | TGI (SNB-75 CNS) [µM] | TGI (SK-OV-3 ovarian) [µM]
CCc1n[nH]c(=O)n1NC(=O)c1ccccc1C(=O)O |  | > 100 | > 100 | > 100 | > 100
CCCC#CC(O)(C(=O)OC1CCN(C)CC1)C1CCCCC1 (configuration not stated) | > 100 | > 100 | > 100 | > 100 | > 100
CCn1c(-c2ccc(C)cc2)cs/c1=N\C(P(=O)(O)O)P(=O)(O)O | > 100 | > 100 |  | > 100 | > 100
c1ccc(/N=C2\c3ccccc3CN2c2ccccn2)nc1 | > 100 | > 100 | > 100 | > 100 | > 100
CSc1nncc2[nH]cnc12 | > 100 | > 100 | > 100 | > 100 | 
CN[C@@H](C)[C@H](OP(=O)(O)OC1[C@@H](O)[C@H](O)C(O)[C@H](O)[C@@H]1O)c1ccccc1 (some centres not stated) | > 100 | > 100 | > 100 | > 100 | > 100
Cc1ccc(Nc2sc(C)cc2C#N)c([N+](=O)[O-])c1 |  | > 100 |  | > 100 | > 100
CCOC(=O)C(C)(C)/C=C\C(Cl)=C(Cl)Cl | > 100 | > 100 |  | > 100 | > 100
O=CC1OC(=O)c2cc(O)c(O)c(O)c2-c2c(cc(O)c(O)c2O)C(=O)OC1C(O)C(O)CO (configuration not stated) | > 100 | > 100 | > 100 | > 100 | 
NC12CC3CC4C1CC1CC2C(C3)C4(N)C1 | > 100 | > 100 | > 100 |  | > 100
O=C(NCCCCNCCCNC(=O)c1cc(-c2ccccc2)nc2ccccc12)c1cc(-c2ccccc2)nc2ccccc12 |  | 4.02 | 3.49 |  | 
O=C(OCC1CCCN2CCCCC12)c1ccncc1 (configuration not stated) | > 100 | > 100 | > 100 | > 100 | > 100
O=S(=O)(O)c1ccc2c(N=Nc3ccccc3Cl)c(O)ccc2c1 | > 100 | > 100 | > 100 | > 100 | > 100
Nc1nc(N)c2nnn(C[C@H]3CC[C@@H](CO)C3)c2n1 | > 100 | > 100 |  | > 100 | > 100
COc1cc(C2SCC(=O)N2c2ccc(Cl)cc2)cc(I)c1O (configuration not stated) | > 100 | > 100 | > 100 | > 100 | > 100
CCOC(=O)c1cc(=O)oc2c1N(C)c1ncccc1N2 | > 100 | > 100 | > 100 | > 100 | > 100
Nn1c(SCC(=O)NCc2ccccc2)nc2ccccc2c1=O | > 100 | > 100 | > 100 | > 100 | 
O[C@H]1[C@H](O)[C@H](O)CN2CCC[C@@H](O)[C@H]12 | > 100 | > 100 | > 100 | > 100 | > 100
Fc1cc(-c2ncc(Cl)cc2Cl)c2cccccc1-2 | > 100 | > 100 |  | > 100 | > 100
COC(OC)(c1ccccc1)C(I)I | 62.4 | 50.7 | 35.4 | 26.3 | 16.7
CCN(CC)CCSc1nc2c(c(=N)n1-c1ccccc1)c(=S)n(-c1ccccc1)c(=S)n2-c1ccccc1 | > 90.9 | 10.8 | 20.4 | 5.52 | 15.5
COc1cc(/C=C/C(=O)N[C@@H]2C(=O)N3[C@@H]2SC(C)(C)[C@@H]3C(=O)O)cc(OC)c1OC | > 100 | > 100 | > 100 | > 100 | > 100
O=C(N/N=C\c1ccc([N+](=O)[O-])cc1)c1ccccc1Nc1ccccc1C(=O)N/N=C/c1ccc([N+](=O)[O-])cc1 | > 100 | > 100 | > 100 | > 100 | > 100

Structure (SMILES) | TGI (HS 578T breast) [µM] | TGI (NCI-H23 lung) [µM] | TGI (SK-MEL-2 melanoma) [µM] | TGI (SNB-75 CNS) [µM] | TGI (SK-OV-3 ovarian) [µM]
COc1cc(C(=O)Nc2c3ccccc3nc3ccccc23)cc(OC)c1OC | > 100 | > 100 | > 100 |  | > 100
CCOC(=O)COc1c(OC)cc(C2C3=C(COC3=O)Oc3cc4c(cc32)OCO4)cc1OC (configuration not stated) | > 57.1 | 14.2 | > 100 | > 100 | > 57.5
N#Cc1ccc(-c2nc3ccc(Cl)cc3[nH]2)cc1 | > 100 |  | > 100 | > 100 | > 100
O=C1OC[C@@H]2Cc3c([nH]c4ccccc34)[C@@H](c3cc(O)c(O)c(O)c3)N12 | 76.2 | 98.6 | 18.9 | 60.9 | > 100
CC(=O)O[C@H]1C(=O)[C@@]2(C)[C@H]([C@H](OC(=O)c3ccccc3)[C@]3(O)C[C@H](OC(=O)[C@H](O)[C@@H](NC(=O)CC(C)C)c4ccccc4)C(C)=C1C3(C)C)[C@]1(OC(C)=O)CO[C@@H]1C[C@@H]2O | 0.00822 | > 10 | > 10 | 0.0253 | 
COC1(OC)C2(Cl)C(Cl)=C(Cl)C1(Cl)C1COCC12 (configuration not stated) | > 100 | > 71.2 | > 100 | > 100 | > 100
CN(C)CCNC(=O)c1ccc(NCCCN(C)CCCNc2ccc(C(=O)NCCN(C)C)c3[nH]c4ccc([N+](=O)[O-])cc4c(=O)c23)c2c(=O)c3cc([N+](=O)[O-])ccc3[nH]c12 | > 100 | 0.537 | 0.382 | 1.21 | 1.35
CCOC(=O)/C=C(\N=P(c1ccccc1)(c1ccccc1)c1ccccc1)C(F)(F)C(F)(F)C(F)(F)C(F)(F)C(F)(F)F | > 100 | > 100 | > 100 | > 100 | > 100
N#CC(N=Nc1ccccc1)c1nc2ccccc2o1 (configuration not stated) | 66.8 | 43.9 | 70.5 |  | 68
Cc1ccc(S(=O)(=O)/N=C(\[O-])C2=C(c3ccccc3)NN(C)c3nc4cccc[n+]4nc32)cc1 | > 100 | > 100 | > 100 | > 100 | 
CC(C)CC1[C@@H](OCc2ccccc2)COS(=O)(=O)N1Cc1ccccc1 (some centres not stated) | 70 | 75.2 | > 100 | > 100 | > 100
COc1ccc(-n2c3c(c4c(CN(C)C)c(O)ccc42)C(=O)c2ccccc2C3=O)cc1 | > 100 | 29.6 | 45.8 |  | 8.01
COc1ccc(CCc2ccc(O)c(C(=O)O)c2)cc1OC | > 100 | > 100 | > 100 | > 100 | > 100
S=C(c1c[nH]c2ccccc12)N1CCN(c2ccccc2)CC1 | 38.3 | > 100 | > 100 | 21.6 | > 100
O=c1c(-c2ccccc2Cl)coc2cc(F)ccc12 | > 100 | > 100 | > 100 | 54.5 | > 100
O=C(/C=C/c1cccs1)c1cccc(C(=O)/C=C/c2cccs2)n1 | > 94.8 | > 90.6 | > 100 | > 100 | > 100
NCCCc1c(-c2ccccc2)nc(N)[nH]c1=O | > 100 | > 100 | > 100 | > 100 | > 100
Cc1ccc(O)c(-c2csc(NCN3CCN(CNc4nc(-c5cc(C)ccc5O)cs4)CC3)n2)c1 | > 100 | > 100 | > 100 | > 100 | > 100
COc1ccc(Nc2nc(N)c(C(=O)c3ccccc3)s2)cc1 | 3.18 | > 60.3 | 32.2 | 0.33 | > 100
CCOP(=O)(OCC)/C(C#N)=C/c1cccn1N(C)C | > 100 | > 100 | > 100 | > 100 | > 100
O=C(O)c1cc(O)c2c(c1)Cc1cccc(O)c1C2=O |  | > 100 |  | 30.6 | > 100
